# Patent US20230064324A1, “NEW USES FOR STEVIOL” (SUNTORY HOLDINGS LIMITED, priority 2019, published 2023)
# Tests used:
# GRP78 = GRP78 expression in adipocytes under endoplasmic reticulum stress (RT-PCR); type: cell-based, Human; details: pretreatment 24 h, tunicamycin 0.65 μM 24 h
# Method: (§1) Adipocytes were prepared as follows. Normal human subcutaneous preadipocytes were reconstituted in a T75 flask using a growth medium (PBM-2 medium, Cat. No. PT-8002, Lonza, supplemented with 10% FBS, 2 mM L-glutamine, 50 μg/mL gentamycin, and 37 ng/mL amphotericin-B), and precultured for 3 days in a CO2 incubator (37° C., 5% CO2; the same holds true for the description below).
# (§2) The lysate was preserved at −80° C. until use.
# (§3) The internal standard gene used was GAPDH gene.
# CHOP = CHOP expression in adipocytes under endoplasmic reticulum stress (RT-PCR); type: cell-based, Human; details: pretreatment 24 h, tunicamycin 0.65 μM 24 h
# Method: as §1, §2, §3
smiles,measurement,setting,value
C=C1C[C@@]23CC[C@H]4[C@@](C)(CCC[C@@]4(C)C(=O)O)[C@@H]2CC[C@]1(O)C3 [Steviol],"Expression level of GRP78 in adipocytes (relative to GAPDH, untreated=1)",GRP78; steviol 6.25 μg/mL,4.46
same,"Expression level of GRP78 in adipocytes (relative to GAPDH, untreated=1)",GRP78; steviol 12.5 μg/mL,4.18
same,"Expression level of GRP78 in adipocytes (relative to GAPDH, untreated=1)",GRP78; steviol 25 μg/mL,4.06
same,"Expression level of GRP78 in adipocytes (relative to GAPDH, untreated=1)",GRP78; steviol 50 μg/mL,3.54
same,"Expression level of CHOP in adipocytes (relative to GAPDH, untreated=1)",CHOP; steviol 6.25 μg/mL,3.49
same,"Expression level of CHOP in adipocytes (relative to GAPDH, untreated=1)",CHOP; steviol 12.5 μg/mL,3.23
same,"Expression level of CHOP in adipocytes (relative to GAPDH, untreated=1)",CHOP; steviol 25 μg/mL,3.15
same,"Expression level of CHOP in adipocytes (relative to GAPDH, untreated=1)",CHOP; steviol 50 μg/mL,3.17
